molecular target: T1, GR (Homo sapiens, UniProt P04150); experiment: In Vitro GR Luciferase Reporter Assay (antagonist mode, CHO-K1-GR-MMTV-Luc reporter cells); type: cell-based; settings: antagonist assay with 10 nM Dexamethasone, 18-24 hours
T1 construct: expressed in transfected cells; host or cells: CHO-K1
T1 sequence (P04150 1-777): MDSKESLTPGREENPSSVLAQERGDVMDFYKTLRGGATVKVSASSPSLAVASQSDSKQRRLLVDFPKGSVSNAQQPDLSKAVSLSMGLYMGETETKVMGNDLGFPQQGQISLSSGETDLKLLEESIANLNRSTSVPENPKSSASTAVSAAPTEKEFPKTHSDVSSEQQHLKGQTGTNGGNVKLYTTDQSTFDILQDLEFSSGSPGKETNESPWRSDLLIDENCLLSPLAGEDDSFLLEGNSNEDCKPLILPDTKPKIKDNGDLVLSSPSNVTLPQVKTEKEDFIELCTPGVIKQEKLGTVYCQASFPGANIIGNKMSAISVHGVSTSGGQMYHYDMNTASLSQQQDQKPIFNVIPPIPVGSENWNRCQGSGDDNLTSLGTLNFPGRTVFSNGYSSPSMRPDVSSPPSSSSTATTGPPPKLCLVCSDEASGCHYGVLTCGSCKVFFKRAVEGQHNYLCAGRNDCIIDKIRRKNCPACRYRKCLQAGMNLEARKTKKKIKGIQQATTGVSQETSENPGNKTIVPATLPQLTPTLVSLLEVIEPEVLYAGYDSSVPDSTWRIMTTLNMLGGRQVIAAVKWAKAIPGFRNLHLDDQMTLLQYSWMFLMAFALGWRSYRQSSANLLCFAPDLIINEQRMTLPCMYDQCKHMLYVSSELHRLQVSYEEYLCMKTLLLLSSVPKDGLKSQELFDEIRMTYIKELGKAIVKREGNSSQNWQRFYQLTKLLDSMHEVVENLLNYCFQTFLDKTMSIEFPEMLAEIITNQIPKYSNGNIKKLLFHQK
Method in brief: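 Antagonist mode: compounds (8 serial 1:5 dilutions) added to GR-MMTV-luciferase CHO-K1 reporter cells co-exposed to 10 nM dexamethasone final, in phenol red-free DMEM plus 10% CSS. After roughly 18-24 h at 37° C, OneGlo luminescence read and IC50 calculated.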

IC50, ≤ 100 nM:
CN([C@H]1CCC2=Cc3c(cnn3-c3ccc(F)cc3)C[C@]2(C(=O)c2nccs2)C1)S(=O)(=O)c1ccc(F)cc1 [Example 106, 4-fluoro-N-((4aS,6S)-1-(4-fluorophenyl)-4a-(thiazole-2-carbonyl)-4,4a,5,6,7,8-hexahydro-1H-benzo[f]indazol-6-yl)-N-methylbenzenesulfonamide]
CN([C@H]1CCC2=Cc3c(cnn3-c3ccc(F)cc3)C[C@]2(C(=O)c2cc(C(F)(F)F)ccn2)C1)S(=O)(=O)c1cnn(CC2CC2)c1 [Example 108, 1-(cyclopropylmethyl)-N-((4aS,6S)-1-(4-fluorophenyl)-4a-(4-(trifluoromethyl)picolinoyl)-4,4a,5,6,7,8-hexahydro-1H-benzo[f]indazol-6-yl)-N-methyl-1H-pyrazole-4-sulfonamide]
CCN([C@H]1CCC2=Cc3c(cnn3-c3ccc(F)cc3)C[C@]2(C(=O)c2ccc(C3CC3)cn2)C1)S(=O)(=O)c1ccc(F)cc1 [Example 109, N-((4aS,6S)-4a-(5-cyclopropylpicolinoyl)-1-(4-fluorophenyl)-4,4a,5,6,7,8-hexahydro-1H-benzo[f]indazol-6-yl)-N-ethyl-4-fluorobenzenesulfonamide]
CCN([C@H]1CCC2=Cc3c(cnn3-c3ccc(F)cc3)C[C@]2(C(=O)c2ccc(C3CC3)cn2)C1)S(=O)(=O)c1ccc(Cl)cc1 [Example 110, 4-chloro-N-((4aS,6S)-4a-(5-cyclopropylpicolinoyl)-1-(4-fluorophenyl)-4,4a,5,6,7,8-hexahydro-1H-benzo[f]indazol-6-yl)-N-ethylbenzenesulfonamide]

same assay, conditions: antagonist mode, 10 nM Dexamethasone

IC50, ≤ 100 nM:
O=C(c1cc(C(F)(F)F)ccn1)[C@]12Cc3cnn(-c4ccc(F)cc4)c3C=C1CC[C@H](S(=O)(=O)c1cnn(CC(F)(F)F)n1)C2 [Example 115, ((4aS,6S)-1-(4-Fluorophenyl)-6-((2-(2,2,2-trifluoroethyl)-2H-1,2,3-triazol-4-yl)sulfonyl)-1,4,5,6,7,8-hexahydro-4aH-benzo[f]indazol-4a-yl)(4-(trifluoromethyl)pyridin-2-yl)methanone]
CCn1ncc(S(=O)(=O)[C@H]2CCC3=Cc4c(cnn4-c4ccc(F)cc4)C[C@]3(C(=O)c3ccc(C4CC4)cn3)C2)n1 [Example 123, (5-cyclopropylpyridin-2-yl)((4aS,6S)-6-((2-ethyl-2H-1,2,3-triazol-4-yl)sulfonyl)-1-(4-fluorophenyl)-1,4,5,6,7,8-hexahydro-4aH-benzo[f]indazol-4a-yl)methanone]
CN([C@H]1CCC2=Cc3c(cnn3-c3ccc(F)cc3)C[C@]2(C(=O)c2ccc(C3CC3)cn2)C1)S(=O)(=O)c1ccc(F)cc1 [Example 124, N-((4aS,6S)-4a-(5-cyclopropylpicolinoyl)-1-(4-fluorophenyl)-4,4a,5,6,7,8-hexahydro-1H-benzo[f]indazol-6-yl)-4-fluoro-N-methylbenzenesulfonamide]
O=C(c1ccccn1)[C@]12Cc3cnn(-c4ccc(F)cc4)c3C=C1CC[C@](F)(S(=O)(=O)c1ccccc1)C2 [Example 125, ((4aS,6S)-6-fluoro-1-(4-fluorophenyl)-6-(phenylsulfonyl)-1,4,5,6,7,8-hexahydro-4aH-benzo[f]indazol-4a-yl)(pyridin-2-yl)methanone]
CCn1ncc(S(=O)(=O)N(C)[C@H]2CCC3=Cc4c(cnn4-c4ccc(F)cc4)C[C@]3(C(=O)c3cc(C(F)(F)F)ccn3)C2)n1 [Example 126, 2-ethyl-N-((4aS,6S)-1-(4-fluorophenyl)-4a-(4-(trifluoromethyl)picolinoyl)-4,4a,5,6,7,8-hexahydro-1H-benzo[f]indazol-6-yl)-N-methyl-2H-1,2,3-triazole-4-sulfonamide]
CCN([C@H]1CCC2=Cc3c(cnn3-c3ccc(F)cc3)C[C@]2(C(=O)c2nccs2)C1)S(=O)(=O)c1ccc(Cl)cc1 [Example 127, 4-chloro-N-ethyl-N-((4aS,6S)-1-(4-fluorophenyl)-4a-(thiazole-2-carbonyl)-4,4a,5,6,7,8-hexahydro-1H-benzo[f]indazol-6-yl)benzenesulfonamide]
CCN([C@H]1CCC2=Cc3c(cnn3-c3ccc(F)cc3)C[C@]2(C(=O)c2nccs2)C1)S(=O)(=O)c1ccc(F)cc1 [Example 128, N-ethyl-4-fluoro-N-((4aS,6S)-1-(4-fluorophenyl)-4a-(thiazole-2-carbonyl)-4,4a,5,6,7,8-hexahydro-1H-benzo[f]indazol-6-yl)benzenesulfonamide]
CCn1ncc(S(=O)(=O)N(C)[C@H]2CCC3=Cc4c(cnn4-c4ccc(F)cc4)C[C@]3(C(=O)c3ccc(C(F)(F)F)cn3)C2)n1 [Example 129, 2-ethyl-N-((4aS,6S)-1-(4-fluorophenyl)-4a-(5-(trifluoromethyl)picolinoyl)-4,4a,5,6,7,8-hexahydro-1H-benzo[f]indazol-6-yl)-N-methyl-2H-1,2,3-triazole-4-sulfonamide]
CCn1ncc(S(=O)(=O)N(C)[C@H]2CCC3=Cc4c(cnn4-c4ccc(F)cc4)C[C@]3(C(=O)c3ccc(C4CC4)cn3)C2)n1 [Example 130, N-((4aS,6S)-4a-(5-cyclopropylpicolinoyl)-1-(4-fluorophenyl)-4,4a,5,6,7,8-hexahydro-1H-benzo[f]indazol-6-yl)-2-ethyl-N-methyl-2H-1,2,3-triazole-4-sulfonamide]
CCN([C@H]1CCC2=Cc3c(cnn3-c3ccc(F)cc3)C[C@]2(C(=O)c2cc(C(F)(F)F)ccn2)C1)S(=O)(=O)c1cnn(CC)c1 [Example 132, N,1-diethyl-N-((4aS,6S)-1-(4-fluorophenyl)-4a-(4-(trifluoromethyl)picolinoyl)-4,4a,5,6,7,8-hexahydro-1H-benzo[f]indazol-6-yl)-1H-pyrazole-4-sulfonamide]
CN([C@H]1CCC2=Cc3c(cnn3-c3ccc(F)cc3)C[C@]2(C(=O)c2nccs2)C1)S(=O)(=O)c1cnn(C)c1 [Example 133, N-((4aS,6S)-1-(4-fluorophenyl)-4a-(thiazole-2-carbonyl)-4,4a,5,6,7,8-hexahydro-1H-benzo[f]indazol-6-yl)-N,1-dimethyl-1H-pyrazole-4-sulfonamide]
CN([C@H]1CCC2=Cc3c(cnn3-c3ccc(F)cc3)C[C@]2(C(=O)c2ccc(C3CC3)cn2)C1)S(=O)(=O)c1ccn(C)n1 [Example 135, N-((4aS,6S)-4a-(5-cyclopropylpicolinoyl)-1-(4-fluorophenyl)-4,4a,5,6,7,8-hexahydro-1H-benzo[f]indazol-6-yl)-N,1-dimethyl-1H-pyrazole-3-sulfonamide]
CCN([C@H]1CCC2=Cc3c(cnn3-c3ccc(F)cc3)C[C@]2(C(=O)c2ccc(C3CC3)cn2)C1)S(=O)(=O)c1cnn(C)c1 [Example 136, N-((4aS,6S)-4a-(5-cyclopropylpicolinoyl)-1-(4-fluorophenyl)-4,4a,5,6,7,8-hexahydro-1H-benzo[f]indazol-6-yl)-N-ethyl-1-methyl-1H-pyrazole-4-sulfonamide]
CN(c1ccc(F)cc1)S(=O)(=O)[C@H]1CCC2=Cc3c(cnn3-c3ccc(F)cc3)C[C@]2(C(=O)c2ccccn2)C1 [Example 137, (4aS,6S)-N,1-bis(4-fluorophenyl)-N-methyl-4a-picolinoyl-4,4a,5,6,7,8-hexahydro-1H-benzo[f]indazole-6-sulfonamide]
CN([C@H]1CCC2=Cc3c(cnn3-c3ccc(F)cc3)C[C@]2(C(=O)c2nccs2)C1)S(=O)(=O)c1ccn(C)n1 [Example 139, N-((4aS,6S)-1-(4-fluorophenyl)-4a-(thiazole-2-carbonyl)-4,4a,5,6,7,8-hexahydro-1H-benzo[f]indazol-6-yl)-N,1-dimethyl-1H-pyrazole-3-sulfonamide]
Cn1cc(S(=O)(=O)N(C2CC2)[C@H]2CCC3=Cc4c(cnn4-c4ccc(F)cc4)C[C@]3(C(=O)c3ccc(C4CC4)cn3)C2)cn1 [Example 141, N-cyclopropyl-N-((4aS,6S)-4a-(5-cyclopropylpicolinoyl)-1-(4-fluorophenyl)-4,4a,5,6,7,8-hexahydro-1H-benzo[f]indazol-6-yl)-1-methyl-1H-pyrazole-4-sulfonamide]
CN([C@H]1CCC2=Cc3c(cnn3-c3ccc(F)cc3)C[C@]2(C(=O)c2nccs2)C1)S(=O)(=O)c1ccc(Cl)cc1 [Example 143, 4-chloro-N-((4aS,6S)-1-(4-fluorophenyl)-4a-(thiazole-2-carbonyl)-4,4a,5,6,7,8-hexahydro-1H-benzo[f]indazol-6-yl)-N-methylbenzenesulfonamide]
CCN([C@H]1CCC2=Cc3c(cnn3-c3ccc(F)cc3)C[C@]2(C(=O)c2cc(C(F)(F)F)ccn2)C1)S(=O)(=O)c1cnn(C)n1 [Example 145, N-ethyl-N-((4aS,6S)-1-(4-fluorophenyl)-4a-(4-(trifluoromethyl)picolinoyl)-4,4a,5,6,7,8-hexahydro-1H-benzo[f]indazol-6-yl)-2-methyl-2H-1,2,3-triazole-4-sulfonamide]

Source: patent US20210122730A1, “GLUCOCORTICOID RECEPTOR MODULATORS” (ORIC Pharmaceuticals, Inc., priority 2017, published 2021)
